Two molecules from patent US7030110B2, “Cyclic oxyguanidine pyrazinones as protease inhibitors” (Ortho-McNeil Pharmaceuticals, Inc., priority 2000, dated 2006) can be followed below.

Counter-ions that a name gives are not always drawn.

In this assay the target is T1, human α-thrombin (Homo sapiens, UniProt P00734).
T1 construct: Human α-thrombin, human factor Xa and human plasmin were obtained from Enzyme Research Laboratories; purchased Enzyme Research Laboratories (South Bend, Indiana)
Briefly: In vitro inhibition of purified thrombin, Ki determination (p-nitroanilide substrate hydrolysis). It is filed as biochemical. The note with it: purified human α-thrombin 0.5 nM; substrate N-succinyl-Ala-Ala-Pro-Arg-p-nitroanilide; 50 mM HEPES, 200 mM NaCl, pH 7.5; 37° C. From the text:
Reagents: All buffer salts were obtained from Sigma Chemical Company (St. Louis, Mo.), and were of the highest purity available. The enzyme substrates, N-benzoyl-Phe-Val-Arg-p-nitroanilide (Sigma B7632), N-benzoyl-Ile-Glu-Gly-Arg-p-nitroanilide hydrochloride (Sigma B2291), N-p-Tosyl-Gly-Pro-Lys-p-nitroanilide (Sigma T6140), N-succinyl-Ala-Ala-Pro-Phe-p-nitroanilide (Sigma S7388) and N-CBZ-Val-Gly-Arg-p-nitroanilide (Sigma C7271) were obtained from Sigma. N-succinyl-Ala-Ala-Pro-Arg-p-nitroanilide (BACHEM L-1720) and N-succinyl-Ala-Ala-Pro-Val-p-nitroanilide (BACHEM L-1770) were obtained from BACHEM (King of Prussia, Pa.). […]
Ki Determinations: All assays are based on the ability of the test compound to inhibit the enzyme catalyzed hydrolysis of a peptide p-nitroanilide substrate. […] In general, substrate concentrations are lower than the experimentally determined value for Km. […]
In a typical K1 determination, into each well of a 96 well plate is pipetted […] of substrate solution, […] of test compound solution, and the plate allowed to thermally equilibrate at 37° C. in a Molecular Devices plate reader for >15 minutes. Reactions were initiated by the addition of a […] aliquot of enzyme and the absorbance increase at 405 nm is recorded for 15 minutes. […] The data are fit to a linear regression, and the value of the slope of the line calculated. […]

A word on the Ki: it is a dissociation constant, usually derived from enzyme kinetics or from competition with a known ligand. A higher Ki goes with weaker binding. With `Cc1ccc(CCNc2ncc(C)n(CC(=O)NC3CCN(C(=N)N)OC3)c2=O)cc1` (centres unmarked) [Example 1, N-(2-Carbamimidoyl-[1,2]oxazinan-5-yl)-2-[6-methyl-2-oxo-3-(2-p-tolylethylamino)-2H-pyrazin-1-yl]-acetamide trifluoroacetate], the inhibition constant (Ki) was in the range of 0.6 to 1.3 nM.

Regarding `Cc1cnc(NCC(F)(F)c2ccccc2)c(=O)n1CC(=O)NCC1CNC(=N)NO1` (centres unmarked) [Example 2, 2-[3-(2,2-Difluoro-2-phenylethylamino)-6-methyl-2-oxo-2H-pyrazin-1-yl]-N-(3-imino-[1,2,4]oxadiazinan-6-ylmethyl)-acetamide Trifluoroacetate], the affinity corresponds to a Ki of 5 nM.
